# Test results published in patent US20260285853A1, “COMPOUNDS AND METHODS FOR MODULATING SPLICING” (REMIX THERAPEUTICS INC., priority 2023, published 2026).
# Key:
# Format in all cases: cell-based
# MYB mRNA [1] = assay: Splicing RT-qPCR assay (THP), Table 2A; details: Table 2A (THP); for AC50: AJ mRNA increase, read-out: MYB AJ (increase in alternative junction mRNA, AC50); for IC50: CJ mRNA decrease, read-out: MYB CJ (decrease in canonical junction mRNA, IC50)
# MYB mRNA [2] = assay: Gene panel canonical junction qPCR assay, decrease in CJ mRNA, Table 3; details: decrease in canonical junction (CJ) mRNA, gene panel qPCR, Table 3
# Outline: (§1)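 Cells: A673 or K562; 24 h compound exposure, 37 °C, 5% CO2; 11-pt 3-fold series from 10 uM final; DMSO ≤0.25%. Lysate → cDNA → qPCR with junction-spanning primers/probe for CJ transcript. ΔCt vs housekeeper, ΔΔCt vs DMSO, 2^(−ΔΔCt), % response, 4PL → IC50.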
# HTT mRNA [3] = assay: as above; details: decrease in canonical junction (CJ) mRNA, gene panel qPCR, Table 3
# Outline: as §1
# HTT mRNA [4] = assay: Splicing RT-qPCR assay (THP), Table 2A; details: Table 2A (THP); for AC50: AJ mRNA increase, read-out: HTT AJ (increase in alternative junction mRNA, AC50); for IC50: CJ mRNA decrease, read-out: HTT CJ (decrease in canonical junction mRNA, IC50)
# [5] = tested on: SH-SY5Y (human neuroblastoma) cells; assay: Cell viability, Cell Titer Glo 2.0 assay; details: read-out: Viability SHSY5Y.3 GI50
# Outline: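 CellTiter-Glo 2.0 luminescence read-out after 72 h compound exposure (37 °C, 5% CO2); medium-only wells as blank. DMSO 0.1% final.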
SMILES,AC50 (MYB mRNA [1]),IC50 (MYB mRNA [1]),IC50 (MYB mRNA [2]),IC50 (HTT mRNA [3]),AC50 (HTT mRNA [4]),IC50 (HTT mRNA [4]),GI50 [5]
"COc1cc2nn(C)cc2cc1NC(=O)c1c(F)cc(N2CCC(NC3CC3)CC2)c2cn(C)nc12 [Compound 396, 4-[4-(cyclopropylamino)-1-piperidyl]-6-fluoro-N-(6-methoxy-2-methyl-indazol-5-yl)-2-methyl-indazole-7-carboxamide]",< 100 nM,< 100 nM,< 100 nM,100 to 1000 nM,100 to 1000 nM,100 to 1000 nM,< 100 nM
"COc1c(NC(=O)c2c(F)cc(N3CCC(NC4CC4)CC3)c3cn(C)nc23)cn2cc(C)nc2c1C [Compound 397, 4-[4-(cyclopropylamino)-1-piperidy1]-6-fluoro-N-(7-methoxy-2,8-dimethyl-imidazo[1,2-a]pyridin-6-y1)-2-methyl-indazole-7-carboxamide]",1000 to 10000 nM,1000 to 10000 nM,1000 to 10000 nM,> 10000 nM,> 10000 nM,> 10000 nM,1000 to 10000 nM
"COc1nc2nc(C)cn2cc1NC(=O)c1c(F)cc(N2CCC(NC3CC3)CC2)c2cn(C)nc12 [Compound 398, 4-[4-(cyclopropylamino)-1-piperidy1]-6-fluoro-N-(7-methoxy-2-methyl-imidazo-[1,2-a]pyrimidin-6-yl)-2-methyl-indazole-7-carboxamide]",< 100 nM,< 100 nM,< 100 nM,1000 to 10000 nM,1000 to 10000 nM,1000 to 10000 nM,100 to 1000 nM
Cc1cn2cc(NC(=O)c3c(F)cc(N4CCC(NC5CC5)CC4)c4cn(C)nc34)cc(Oc3ccccn3)c2n1 [Compound 399],< 100 nM,100 to 1000 nM,100 to 1000 nM,1000 to 10000 nM,1000 to 10000 nM,1000 to 10000 nM,100 to 1000 nM
"CC(=O)NCc1nc(C)cn2cc(NC(=O)c3c(F)cc(N4CCC(NC5CC5)CC4)c4cn(C)nc34)nc12 [Compound 400, N-(8-(acetamido-methyl)-6-methylimidazo [1,2-a]-pyrazin-2-yl)-4-(4-(cyclopropylamino)-piper-idin-1-yl)-6-fluoro-2-meth-yl-2H-indazole-7-carbox-amide 2,2,2-trifluoro-acetate]",1000 to 10000 nM,1000 to 10000 nM,1000 to 10000 nM,> 10000 nM,> 10000 nM,> 10000 nM,> 10000 nM
"Cc1nc(CN)cn2cc(NC(=O)c3c(F)cc(N4CCC(NC5CC5)CC4)c4cn(C)nc34)nc12 [Compound 401, N-[6-(aminomethyl)-8-methyl-imidazo[1,2-a]pyrazin-2-yl]-4-[4-(cyclopropylamino)-1-piperidyl]-6-fluoro-2-methyl-indazole-7-carboxamide]",1000 to 10000 nM,1000 to 10000 nM,1000 to 10000 nM,> 10000 nM,> 10000 nM,> 10000 nM,> 10000 nM
"CCNC1CCN(c2cc(F)c(C(=O)Nc3nc4c(C)nc(C)cc4n3C)c3nn(C)cc23)CC1 [Compound 402, 4-(4-(ethylamino)-piperidin-1-yl)-6-fluoro-2-methyl-N-(1,4,6-trimethyl-1H-imidazo[4,5-c]pyridin-2-yl)-2H-indazole-7-carboxamide bis(2,2,2-trifluoroacetate)]",> 10000 nM,> 10000 nM,> 10000 nM,> 10000 nM,> 10000 nM,> 10000 nM,> 10000 nM
"Cc1c2cc(NC(=O)c3c(F)cc(N4CCC(NC5CC5)CC4)c4cn(C)nc34)cc(F)c2nn1C [Compound 403, 4-[4-(cyclopropyl-amino)-1-piperidyl]-6-fluoro-N-(7-fluoro-2,3-dimethyl-indazol-5-y1)-2-methyl-indazole-7-carboxamide]",> 10000 nM,> 10000 nM,> 10000 nM,> 10000 nM,> 10000 nM,> 10000 nM,100 to 1000 nM
"Cc1cn2cc(NC(=O)c3c(F)cc(N4CCC(NC5CC5)CC4)c4cn(C)nc34)nc2cn1 [Compound 404, 4-(4-(cyclopropylamino)-piperidin-1-yl)-6-fluoro-2-methyl-N-(6-methylimid-azo-[1,2-a]pyrazin-2-yl)-2H-indazole-7-carbox-amide 2,2,2-trifluoro-acetate]",< 100 nM,< 100 nM,< 100 nM,> 10000 nM,1000 to 10000 nM,> 10000 nM,100 to 1000 nM
"COc1c(NC(=O)c2c(F)cc(N3CCC(NC4CC4)CC3)c3cn(C)nc23)cc2cn(C)nc2c1F [Compound 405, 4-[4-(cyclopropylamino)-1-piperidyl]-6-fluoro-N-(7-fluoro-6-methoxy-2-methyl-indazol-5-yl)-2-methyl-indazole-7-carboxamide]",< 100 nM,< 100 nM,< 100 nM,100 to 1000 nM,100 to 1000 nM,100 to 1000 nM,< 100 nM
"CCOc1cc2nc(C)cn2cc1NC(=O)c1c(F)cc(N2CCC(NC3CC3)CC2)c2cn(C)nc12 [Compound 406, 4-[4-(cyclopropylamino)-1-piperidyl]-N-(7-ethoxy-2-methyl-imidazo[1,2-a]pyridin-6-yl)-6-fluoro-2-methyl-indazole-7-carboxamide]",100 to 1000 nM,100 to 1000 nM,100 to 1000 nM,1000 to 10000 nM,1000 to 10000 nM,1000 to 10000 nM,100 to 1000 nM
"COc1cc2nc(CF)cn2cc1NC(=O)c1c(F)cc(N2CCC(NC3CC3)CC2)c2cn(C)nc12 [Compound 407, [cyclopropyl-[1-[6-fluoro-7-[[2-(fluoromethyl)-7-methoxy-imidazo[1,2-a]-pyridin-6-yl]carbamoyl]-2-methyl-indazol-4-y1]-4-piperidyl]amino] 2,2,2-trifluoroacetate]",< 100 nM,< 100 nM,< 100 nM,> 10000 nM,> 10000 nM,> 10000 nM,1000 to 10000 nM
"Cc1cn2cc(NC(=O)c3c(F)cc(N4CCC(NC5CC5)CC4)c4cn(C)nc34)nc(Oc3ccccn3)c2n1 [Compound 408, 4-[4-(cyclopropylamino)-1-piperidy1]-6-fluoro-2-methyl-N-[2-methyl-8-(2-pyridyloxy)imidazo[1,2-a]-pyrazin-6-yl]indazole-7-carboxamide]",< 100 nM,< 100 nM,< 100 nM,1000 to 10000 nM,100 to 1000 nM,1000 to 10000 nM,100 to 1000 nM
Cc1cn2cc(NC(=O)c3c(F)cc(N4CCC(NC5CC5)CC4)c4cn(C)nc34)cc(Oc3cccnn3)c2n1 [Compound 409],1000 to 10000 nM,100 to 1000 nM,100 to 1000 nM,1000 to 10000 nM,> 10000 nM,1000 to 10000 nM,> 10000 nM
"Cc1cn2cc(NC(=O)c3c(F)cc(N4CCC(NC5CC5)CC4)c4cn(C)nc34)cc(Oc3cn[nH]c3)c2n1 [Compound 410, N-(8-((1H-pyrazol-4-yl)oxy)-2-methylimidazo[1,2-a]-pyridin-6-yl)-4-(4-(cyclopropylamino)piperidin-1-yl)-6-fluoro-2-methyl-2H-indazole-7-carboxamide 2,2,2-trifluoroacetate]",> 10000 nM,> 10000 nM,> 10000 nM,> 10000 nM,> 10000 nM,> 10000 nM,> 10000 nM
